Laboratory results taken from US20120190752A1, “EXO-S-MECAMYLAMINE METHOD, USE, AND COMPOUND FOR TREATMENT” (Targacept Inc., priority 2009, published 2012).

Test system: subjects with major depressive disorder (MDD) who were inadequate responders to citalopram
Test: CGI-I / CGI-GI (Clinical Global Impression-Improvement), Phase 2b add-on trial
Format: in vivo, human
Source text: The Clinical Global Impression—Improvement scale (CGI-I) is a 7 point scale that requires the clinician to assess how much the patient's illness has improved or worsened relative to a baseline state at the beginning of the intervention. The Clinical Global Impression—Efficacy Index is a 4 point×4 point rating scale that assesses the therapeutic effect of the treatment. In more detail, a multi-center double-blind, randomized, placebo-controlled, parallel group, flexible dose titration study of TC-5214 as adjunctive therapy in subjects with major depressive disorder (MDD) who were inadequate responders to citalopram was conducted in centers in the US and India. The study consisted of a screening period, baseline/washout period, open-label phase, double-blind phase, and a follow-up visit. Subject participation in the study could continue for up to 16 weeks of treatment. Following a washout period of up to 28 days for other antidepressants, subjects with MDD and a MADRS total score >/=28 and a Clinical Global Impression-Severity (CGI-S) score >/=4 were enrolled on Day 1 into an open-label citalopram-only phase of the study. This phase lasted 8 weeks, with citalopram (CIT) dose increased from a once-daily dose of 20 mg (Day 1 through Week 4) to 40 mg (Week 4 through Week 8). A total of 579 subjects entered the open-label citalopram phase. At Week 8, subjects who tolerated 40 mg CIT, but whose MADRS score was reduced <50% from baseline and no lower than 17, and CGI-S≧4, were considered inadequate responders. These subjects (n=270) were randomized in a double-blind fashion to receive either placebo or TC-5214-23 as add-on therapy to continued CIT. The double-blind phase of the study also lasted 8 weeks (Week 8 to Week 16). Study drug, TC-5214-23 or placebo, was started at 2 mg daily (1 mg twice per day [BID] dosing), added on to continuing CIT (40 mg PO qd). After 2 weeks of treatment, the dose of TC-5214 could be increased to 4 mg (2 mg BID) or continued unchanged, with up-titration based upon good tolerability and inadequate therapeutic response. After a further 2 weeks, the dose of TC-5214 could be increased again to 8 mg (4 mg BID) if judged appropriate by the investigator, based upon good tolerability and inadequate therapeutic response. At any time during the double-blind phase of the study, placebo or TC-5214-23 could be reduced to the previous dose level following the emergence of unacceptable adverse events (AEs). […] At this follow-up, any signs or symptoms of relapse were evaluated. If a subject was prematurely discontinued from the study between Week 8 and Week 16 for any reason, the investigator was to make every effort to perform all evaluations as per protocol, assuming the subject had reached the end of the double-blind add-on treatment phase. These evaluations were to be made as soon as possible and within 2 weeks of discontinuation. […] There was no meaningful difference in results as a function of age, gender, site, or smoking status. With regard to efficacy endpoints, the following tables present efficacy used in the ITT (Intent-to-Treat) and PP (Per Protocol) populations unless otherwise specific. The primary inference was based upon Week 16 visit using the ITT population. Change from baseline was obtained by subtracting the baseline values from the individual on-treatment values. Change from Week 16 was obtained by subtracting the Week 16 values from the individual follow-up visit (Week 18/19) values. If either the baseline or Week 16 or on-treatment or follow-up value was missing, the change from baseline or Week 16 value was also set to missing. To account for missing data, the last observation carry forward (LOCF) method was used for the ITT and PP populations. Thus, the last available on-therapy observation for a subject, including the observation at premature discontinuation, was used to estimate subsequent missing data points. […]

[1] = ITT Population, Double Blind Week 16 LOCF
[2] = ITT Population, Double Blind Week 18 LOCF (Follow-up)
[3] = PP Population, Double Blind Week 16 LOCF
[4] = PP Population, Double Blind Week 18 LOCF (Follow-up)

CNC1(C)C2CCC(C2)C1(C)C (stereo in doubt) [TC-5214, (S)—N,2,3,3-tetramethylnorbornan-2-amine]
CGI-I Adjusted Mean [1]: 1.91
CGI-I Mean Difference between TC-5214 and Placebo [1]: 0.79
CGI-I Adjusted Mean [2]: 1.90
CGI-I Mean Difference between TC-5214 and Placebo [2]: 0.71
CGI-I score compared with placebo (ITT and PP populations, Week 16 and Week 18, result in words): statistically significant decreases (improvements)
CGI-GI Difference vs Placebo + CIT (ITT, Week 16 LOCF): −0.79
CGI-GI Adj. Mean (ITT, Week 16 LOCF, add-on to citalopram): 1.91
CGI-I Adjusted Mean [3]: 1.84
CGI-I Mean Difference between TC-5214 and Placebo [3]: 0.78
CGI-I Adjusted Mean [4]: 1.83
CGI-I Mean Difference between TC-5214 and Placebo [4]: 0.71
